Experimental data reported in US8835428B2, “Diacylglycerol acyltransferase inhibitors” (Piramal Enterprises Limited, priority 2008, dated 2014).

molecular target: T1, hDGAT1 (Homo sapiens, UniProt O75907); assay: In-vitro DGAT1 assay (hDGAT1 microsomes from Sf9 cells, 14C oleoyl CoA, triglyceride formation); format: biochemical; settings: At 1 μM
T1 construct: host or cells: Sf9 insect cells (baculovirus); microsomal preparation
T1 sequence (O75907 1-488): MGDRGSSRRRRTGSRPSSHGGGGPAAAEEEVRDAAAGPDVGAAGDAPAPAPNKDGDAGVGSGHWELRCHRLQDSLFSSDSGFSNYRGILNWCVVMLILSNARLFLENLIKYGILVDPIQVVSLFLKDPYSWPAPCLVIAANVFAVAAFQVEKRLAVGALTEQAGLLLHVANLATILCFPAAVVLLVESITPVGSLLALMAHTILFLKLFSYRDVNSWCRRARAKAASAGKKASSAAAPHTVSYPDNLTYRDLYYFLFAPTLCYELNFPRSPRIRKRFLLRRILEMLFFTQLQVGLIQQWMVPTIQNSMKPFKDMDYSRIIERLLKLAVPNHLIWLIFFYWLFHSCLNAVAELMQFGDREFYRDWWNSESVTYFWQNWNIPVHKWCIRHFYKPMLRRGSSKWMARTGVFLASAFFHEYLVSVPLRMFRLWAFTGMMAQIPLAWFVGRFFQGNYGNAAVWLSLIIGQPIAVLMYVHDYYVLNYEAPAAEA
Summary of the method: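 Human DGAT1 in baculovirus-infected Sf9 microsomes (2.5–10 μg), [14C]oleoyl-CoA with 409.5, 1228.5 or 1638 μM 1,2-dioleoyl-sn-glycerol, Tris-HCl pH 7.4 buffer with BSA. Compounds screened at 10, 5 and 1 μM in duplicate. Reaction 10 min at 37 °C; heptane-extracted [14C]triglyceride counted by scintillation.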

SMILES	inhibition at 1 µM
Cc1ccc(F)c(NC(=O)Nc2ccc(-c3cc(C(=O)NC(C(=O)O)C(C)C)on3)cc2)c1 (stereo not shown) [Example 156, 2-(3-(4-(3-(2-fluoro-5-methylphenyl)ureido)phenyl)isoxazole-5-carboxamido)-3-methylbutanoic acid]	75 to 100%
CCCCc1ccc(NC(=O)Nc2ccc(-c3cc(C(=O)NC(C(=O)O)C(C)C)on3)cc2)cc1 (stereo not shown) [Example 158, 2-(3-(4-(3-(4-butylphenyl)ureido)phenyl)isoxazole-5-carboxamido)-3-methylbutanoic acid]	75 to 100%
CC(C)C(NC(=O)c1cc(-c2ccc(NC(=O)Nc3cc(F)cc(F)c3)cc2)no1)C(=O)O (stereo not shown) [Example 160, 2-(3-(4-(3-(3,5-difluorophenyl)ureido)phenyl)isoxazole-5-carboxamido)-3-methylbutanoic acid]	75 to 100%
CC(C)C(NC(=O)c1cc(-c2ccc(NC(=O)Nc3ccc(F)c(Cl)c3)cc2)no1)C(=O)O (stereo not shown) [Example 162, 2-(3-(4-(3-(3-chloro-4-fluorophenyl)ureido)phenyl)isoxazole-5-carboxamido)-3-methylbutanoic acid]	75 to 100%
CC(C)[C@H](NC(=O)c1cc(-c2ccc(NC(=O)Nc3ccccc3C(F)(F)F)cc2)no1)C(=O)O [Example 164, (S)-3-methyl-2-(3-(4-(3-(2-(trifluoromethyl)phenyl)ureido)phenyl)isoxazole-5-carboxamido)butanoic acid]	75 to 100%
COc1ccc(OC)c(NC(=O)Nc2ccc(-c3cc(C(=O)N[C@H](C(=O)O)C(C)C)on3)cc2)c1 [Example 166, (S)-2-(3-(4-(3-(2,5-Dimethoxyphenyl)ureido)phenyl)isoxazole-5-carboxamido)-3-methylbutanoic acid]	50 to 75%
CC(C)[C@H](NC(=O)c1cc(-c2ccc(NC(=O)Nc3cc(F)cc(F)c3)cc2)no1)C(=O)O [Example 167, (S)-2-(3-(4-(3-(3,5-difluorophenyl)ureido)phenyl)isoxazole-5-carboxamido)-3-methylbutanoic acid]	75 to 100%
COc1ccc(NC(=O)Nc2ccc(-c3cc(C(=O)N[C@H](C(=O)O)C(C)C)on3)cc2)c(OC)c1 [Example 169, (S)-2-(3-(4-(3-(2,4-dimethoxyphenyl)ureido)phenyl)isoxazole-5-carboxamido)-3-methylbutanoic acid]	50 to 75%
Cc1ccc(NC(=O)Nc2ccc(-c3cc(C(=O)N[C@H](C(=O)O)C(C)C)on3)cc2)c(C)c1 [Example 171, (S)-2-(3-(4-(3-(2,4-dimethylphenyl)ureido)phenyl)isoxazole-5-carboxamido)-3-methylbutanoic acid]	75 to 100%
Cc1ccc(NC(=O)Nc2ccc(-c3cc(C(=O)N[C@H](C(=O)O)C(C)C)on3)cc2)cc1C [Example 173, (S)-2-(3-(4-(3-(3,4-dimethylphenyl)ureido)phenyl)isoxazole-5-carboxamido)-3-methylbutanoic acid]	75 to 100%
Cc1cccc(Cl)c1NC(=O)Nc1ccc(-c2cc(C(=O)N[C@H](C(=O)O)C(C)C)on2)cc1 [Example 175, (S)-2-(3-(4-(3-(2-Chloro-6-methylphenyl)ureido)phenyl)isoxazole-5-carboxamido)-3-methylbutanoic acid]	0 to 50%
CC(C)[C@H](NC(=O)c1cc(-c2ccc(NC(=O)Nc3ccc4c(c3)OCO4)cc2)no1)C(=O)O [Example 177, (S)-2-(3-(4-(3-benzo[d][1,3]dioxol-5-ylureido)phenyl)isoxazole-5-carboxamido)-3-methylbutanoic acid]	75 to 100%
CC(C)[C@H](NC(=O)c1cc(-c2ccc(NC(=O)Nc3ccc(Cl)cc3)cc2)no1)C(=O)O [Example 179, (S)-2-(3-(4-(3-(4-Chlorophenyl)ureido)phenyl)isoxazole-5-carboxamido)-3-methylbutanoic acid]	75 to 100%
CC(C)[C@H](NC(=O)c1cc(-c2ccc(NC(=O)Nc3ccc4c(c3)CCC4)cc2)no1)C(=O)O [Example 181, (S)-2-(3-(4-(3-(2,3-dihydro-1H-inden-5-yl)ureido)phenyl)isoxazole-5-carboxamido)-3-methylbutanoic acid]	75 to 100%
CC(C)[C@H](NC(=O)c1cc(-c2ccc(NC(=O)Nc3cccc(Cl)c3F)cc2)no1)C(=O)O [Example 183, (S)-2-(3-(4-(3-(3-chloro-2-fluorophenyl)ureido)phenyl)isoxazole-5-carboxamido)-3-methylbutanoic acid]	75 to 100%
COc1ccccc1NC(=O)Nc1ccc(-c2cc(C(=O)N[C@H](C(=O)O)C(C)C)on2)cc1 [Example 185, (S)-2-(3-(4-(3-(2-methoxyphenyl)ureido)phenyl)isoxazole-5-carboxamido)-3-methylbutanoic acid]	75 to 100%
CC(C)[C@H](NC(=O)c1cc(-c2ccc(NC(=O)Nc3ccc(OC(F)(F)F)cc3)cc2)no1)C(=O)O [Example 187, (S)-3-methyl-2-(3-(4-(3-(4-(trifluoromethoxy)phenyl)ureido)phenyl)isoxazole-5-carboxamido)butanoic acid]	75 to 100%
Cc1ccc(Cl)c(NC(=O)Nc2ccc(-c3cc(C(=O)N[C@H](C(=O)O)C(C)C)on3)cc2)c1 [Example 189, (S)-2-(3-(4-(3-(2-chloro-5-methylphenyl)ureido)phenyl)isoxazole-5-carboxamido)-3-methylbutanoic acid]	75 to 100%
CC(C)[C@H](NC(=O)c1cc(-c2ccc(NC(=O)Nc3ccc(F)c(F)c3F)cc2)no1)C(=O)O [Example 191, (S)-3-Methyl-2-(3-(4-(3-(2,3,4-trifluorophenyl)ureido)phenyl)isoxazole-5-carboxamido)butanoic acid]	75 to 100%
CC(C)[C@H](NC(=O)c1cc(-c2ccc(NC(=O)Nc3ccc(Cl)cc3F)cc2)no1)C(=O)O [Example 193, (S)-2-(3-(4-(3-(4-chloro-2-fluorophenyl)ureido)phenyl)isoxazole-5-carboxamido)-3-methylbutanoic acid]	75 to 100%
Cc1ccc(Cl)cc1NC(=O)Nc1ccc(-c2cc(C(=O)N[C@H](C(=O)O)C(C)C)on2)cc1 [Example 195, (S)-2-(3-(4-(3-(5-chloro-2-methylphenyl)ureido)phenyl)isoxazole-5-carboxamido)-3-methylbutanoic acid]	75 to 100%
CSc1ccc(NC(=O)Nc2ccc(-c3cc(C(=O)N[C@H](C(=O)O)C(C)C)on3)cc2)cc1 [Example 197, (S)-3-methyl-2-(3-(4-(3-(4-(methylthio)phenyl)ureido)phenyl)isoxazole-5-carboxamido)butanoic acid]	75 to 100%
CC(C)[C@H](NC(=O)c1cc(-c2ccc(NC(=O)Nc3cc(F)ccc3F)cc2)no1)C(=O)O [Example 199, (S)-2-(3-(4-(3-(2,5-Difluorophenyl)ureido)phenyl)isoxazole-5-carboxamido)-3-methylbutanoic acid]	75 to 100%
CC(C)[C@H](NC(=O)c1cc(-c2ccc(NC(=O)Nc3ccc(Cl)cc3Oc3ccccc3)cc2)no1)C(=O)O [Example 201, (S)-2-(3-(4-(3-(4-Chloro-2-phenoxyphenyl)ureido)phenyl)isoxazole-5-carboxamido)-3-methylbutanoic acid]	75 to 100%
CC(C)[C@H](NC(=O)c1cc(-c2ccc(NC(=O)Nc3ccccc3OC(F)(F)F)cc2)no1)C(=O)O [Example 203, (S)-3-methyl-2-(3-(4-(3-(2-(trifluoromethoxy)phenyl)ureido)phenyl)isoxazole-5-carboxamido)butanoic acid]	75 to 100%
Cc1cc(C)cc(NC(=O)Nc2ccc(-c3cc(C(=O)N[C@H](C(=O)O)C(C)C)on3)cc2)c1 [Example 205, (S)-2-(3-(4-(3-(3,5-dimethylphenyl)ureido)phenyl)isoxazole-5-carboxamido)-3-methylbutanoic acid]	50 to 75%
CC(C)[C@H](NC(=O)c1cc(-c2ccc(NC(=O)Nc3ccc(Cl)nc3)cc2)no1)C(=O)O [Example 207, (S)-2-(3-(4-(3-(6-chloropyridin-3-yl)ureido)phenyl)isoxazole-5-carboxamido)-3-methylbutanoic acid]	0 to 50%
CC(C)[C@H](NC(=O)c1cc(-c2ccc(NC(=O)Nc3cccc(Cl)c3)cc2)no1)C(=O)O [Example 209, (S)-2-(3-(4-(3-(3-chlorophenyl)ureido)phenyl)isoxazole-5-carboxamido)-3-methylbutanoic acid]	75 to 100%

same assay, conditions: At 5 μM

SMILES	inhibition at 5 µM	% inhibition of hDGAT1
CC(C)C(NC(=O)c1cc(-c2ccc(NC(=O)Nc3cccc(F)c3)cc2)no1)C(=O)O (stereo not shown) [Example 152, 2-(3-(4-(3-(3-fluorophenyl)ureido)phenyl)isoxazole-5-carboxamido)-3-methylbutanoic acid]	75 to 100%	–
COC(=O)C(NC(=O)c1cc(-c2ccc(NC(=O)Nc3ccccc3C)cc2)no1)C(C)C (stereo not shown) [Example 153, Methyl 3-methyl-2-(3-(4-(3-o-tolylureido)phenyl)isoxazole-5-carboxamido) butanoate]	–	+ (>0% Inhibition ≦50)
Cc1ccccc1NC(=O)Nc1ccc(-c2cc(C(=O)NC(C(=O)O)C(C)C)on2)cc1 (stereo not shown) [Example 154, 3-methyl-2-(3-(4-(3-o-tolylureido)phenyl)isoxazole-5-carboxamido) butanoic acid]	75 to 100%	–
